# Source: patent publication US8410170B2, “Use of isothiocyanates compounds in treating prostatic diseases and skin cancer” (Wuxi JC Pharmaceutical Technology Co., Ltd., priority 2005, dated 2013)
# Where two headings read alike, the source gives them in different places.
# Key:
# [1] = system: non-bacterial prostatitis; test: Therapeutic effects on non-bacterial prostatitis (Xiaozhiling injection into prostate); assay type: in vivo, SD rats; conditions: for urine, 1 h Period / urine, 2 h Period / urine, 3 h Period: last dosing day
# Description: Fifty-five male SD rats were randomly divided into 6 groups, 9 each, except the negative control group for which 10 animals were used. All animals from group 1 to 6 were anesthetized by injection of ketamine under sterile conditions and incised around 1.5 cm with a sterilized surgery scalpel at middle of abdomen. Animals in Group 1 were injected penicillin to prevent infection, and given distill water, 10 ml/kg, once a day, 5 times a week for 5 weeks. Groups from 2 to 6 injected 25% Xiaozhiling into left and right lobes of prostate, 0.1 ml for each lobe and sew the muscle and skin with #1 silk thread. The animals were then given penicillin to prevent infectious. Group 2 was served as negative control group in which animals were treated with distill water by gavage 24 hrs after the Xiaozhiling injection, once a day, 5 times a week for 5 weeks. Group 3 was served as positive control group in which animals were treated with GENURIN by gavage 24 hrs after the Xiaozhiling injection at dose of 60 mg/kg, once a day, 5 times a week (escaping weekend) for 5 weeks. […] On the last dosing day, urine samples from different groups that covered periods of 1, 2 and 3 hrs were collected.
# Twenty-four hrs after the last dose, the animals were euthanized and weighed. Volume and weight of prostate were measured. The averages of the prostate weight/volume and organ coefficient (average weight of prostate/average of body weight) were calculated, and statistical analysis performed (t test).
# Prostate tissues of animals from different groups were embedded with paraffin. The tissue sections were stained with H&E for histpathological examination by an anatomical pathologist.
# [2] = system: xenograft B16 mouse tumor; conditions: 15 days
# Description: The B16 mouse melanoma cells at exponential growth phase were suspended in PBS. […] Adjusted the suspension to a cell concentration of approximately 1×10^7/ml. 0.2 ml of the suspension were transplanted subcutaneously into right axillary subcutis for passaging.
# Under sterile condition the xenograft B16 mouse tumor in mice was stripped from axillary subcutis. After cutting by scissors, the tumor with saline (1:3) was ground in a glass homogenizer. Monocell suspension was made with saline. […] Then adjusted the suspension to a cell density of approximately 1×10^7/ml with saline. 0.2 ml were transplanted subcutaneously into right axillary subcutis of each mouse. After transplanting, randomly divided the mouse into 5 groups, 12 each.
# Tumors were taken out, sizes and weights were measured, and the percent of inhibitions were calculated.
smiles,measurement,setting,value
"S=C=NCCc1ccccc1 [PEITC, phenethyl isothiocyanate]",Fibrous Exudation: no. of animals with score 0,"[1]; PEITC 2 mg/kg, 9 animals",5
same,Fibrous Exudation: no. of animals with score +,"[1]; PEITC 2 mg/kg, 9 animals",4
same,Fibrous Exudation: no. of animals with score ++,"[1]; PEITC 2 mg/kg, 9 animals",0
same,Fibrous Exudation: no. of animals with score +++,"[1]; PEITC 2 mg/kg, 9 animals",0
same,"Histopathological score of prostatitis, Overall Average X ± SD","[1]; PEITC 2 mg/kg, 9 animals",2.16 ± 1.52
same,Hyperblastosis: no. of animals with score 0,"[1]; PEITC 2 mg/kg, 9 animals",7
same,Hyperblastosis: no. of animals with score +,"[1]; PEITC 2 mg/kg, 9 animals",2
same,Hyperblastosis: no. of animals with score ++,"[1]; PEITC 2 mg/kg, 9 animals",0
same,Hyperblastosis: no. of animals with score +++,"[1]; PEITC 2 mg/kg, 9 animals",0
same,Inflammatory Infiltration: no. of animals with score 0,"[1]; PEITC 2 mg/kg, 9 animals",6
same,Inflammatory Infiltration: no. of animals with score +,"[1]; PEITC 2 mg/kg, 9 animals",3
same,Inflammatory Infiltration: no. of animals with score ++,"[1]; PEITC 2 mg/kg, 9 animals",0
same,Inflammatory Infiltration: no. of animals with score +++,"[1]; PEITC 2 mg/kg, 9 animals",0
same,"urine, 1 h Period",[1]; PEITC 2 mg/kg,6.6 ± 2.1 mL
same,"urine, 2 h Period",[1]; PEITC 2 mg/kg,8.7 ± 1.7 mL
same,"urine, 3 h Period",[1]; PEITC 2 mg/kg,9.2 ± 2.7 mL
same,Average of Body Weight,"[1]; PEITC 4 mg/kg gavage (Example 13-11), 5 weeks",370 ± 24.8 g
same,Average Volume of Prostate,"[1]; PEITC 4 mg/kg gavage, 5 weeks",0.78 ± 0.10 cm^3
same,Average Weight of Prostate,"[1]; PEITC 4 mg/kg gavage, 5 weeks",0.72 ± 0.16 g
same,Inhibition of Organ-coefficient,"[1]; PEITC 4 mg/kg gavage, 5 weeks",26.15%
same,Organ Coefficient,"[1]; PEITC 4 mg/kg gavage, 5 weeks",0.192 ± 0.03 %
same,Bleeding: no. of animals with score 0,"[1]; PEITC 4 mg/kg, 9 animals",6
same,Bleeding: no. of animals with score +,"[1]; PEITC 4 mg/kg, 9 animals",3
same,Bleeding: no. of animals with score ++,"[1]; PEITC 4 mg/kg, 9 animals",0
same,Bleeding: no. of animals with score +++,"[1]; PEITC 4 mg/kg, 9 animals",0
same,Chronic Inflammatory Infiltration: no. of animals with score 0,"[1]; PEITC 4 mg/kg, 9 animals",9
same,Chronic Inflammatory Infiltration: no. of animals with score +,"[1]; PEITC 4 mg/kg, 9 animals",0
same,Chronic Inflammatory Infiltration: no. of animals with score ++,"[1]; PEITC 4 mg/kg, 9 animals",0
same,Chronic Inflammatory Infiltration: no. of animals with score +++,"[1]; PEITC 4 mg/kg, 9 animals",0
same,Congestion: no. of animals with score 0,"[1]; PEITC 4 mg/kg, 9 animals",7
same,Congestion: no. of animals with score +,"[1]; PEITC 4 mg/kg, 9 animals",2
same,Congestion: no. of animals with score ++,"[1]; PEITC 4 mg/kg, 9 animals",0
same,Congestion: no. of animals with score +++,"[1]; PEITC 4 mg/kg, 9 animals",0
same,Edema: no. of animals with score 0,"[1]; PEITC 4 mg/kg, 9 animals",5
same,Edema: no. of animals with score +,"[1]; PEITC 4 mg/kg, 9 animals",4
same,Edema: no. of animals with score ++,"[1]; PEITC 4 mg/kg, 9 animals",0
same,Edema: no. of animals with score +++,"[1]; PEITC 4 mg/kg, 9 animals",0
same,Fibrous Exudation: no. of animals with score 0,"[1]; PEITC 4 mg/kg, 9 animals",4
same,Fibrous Exudation: no. of animals with score +,"[1]; PEITC 4 mg/kg, 9 animals",4
same,Fibrous Exudation: no. of animals with score ++,"[1]; PEITC 4 mg/kg, 9 animals",1
same,Fibrous Exudation: no. of animals with score +++,"[1]; PEITC 4 mg/kg, 9 animals",0
same,"Histopathological score of prostatitis, Overall Average X ± SD","[1]; PEITC 4 mg/kg, 9 animals",1.72 ± 0.79
same,Hyperblastosis: no. of animals with score 0,"[1]; PEITC 4 mg/kg, 9 animals",9
same,Hyperblastosis: no. of animals with score +,"[1]; PEITC 4 mg/kg, 9 animals",0
same,Hyperblastosis: no. of animals with score ++,"[1]; PEITC 4 mg/kg, 9 animals",0
same,Hyperblastosis: no. of animals with score +++,"[1]; PEITC 4 mg/kg, 9 animals",0
same,Inflammatory Infiltration: no. of animals with score 0,"[1]; PEITC 4 mg/kg, 9 animals",7
same,Inflammatory Infiltration: no. of animals with score +,"[1]; PEITC 4 mg/kg, 9 animals",2
same,Inflammatory Infiltration: no. of animals with score ++,"[1]; PEITC 4 mg/kg, 9 animals",0
same,Inflammatory Infiltration: no. of animals with score +++,"[1]; PEITC 4 mg/kg, 9 animals",0
same,histopathological scores versus untreated prostatitis animals (slide),"[1]; PEITC 4 mg/kg, FIG. 7.3",less severe
same,"urine, 1 h Period",[1]; PEITC 4 mg/kg,5.7 ± 2.2 mL
same,"urine, 2 h Period",[1]; PEITC 4 mg/kg,9.4 ± 1.5 mL
same,"urine, 3 h Period",[1]; PEITC 4 mg/kg,10.4 ± 1.9 mL
same,Changes in Body Weight,[2]; PEITC 70 mg/kg/d gavage (Example 13-16),9.78 ± 4.28 g
same,Average of Tumor Weight,[2]; PEITC 70 mg/kg/d gavage,1.23 ± 0.68 g
same,Inhibition,[2]; PEITC 70 mg/kg/d gavage,39.23%
same,Changes in Body Weight,[2]; PEITC 120 mg/kg/d gavage (Example 13-16),6.34 ± 3.42 g
same,Average of Tumor Weight,[2]; PEITC 120 mg/kg/d gavage,0.91 ± 0.23**∇ g
same,Inhibition,[2]; PEITC 120 mg/kg/d gavage,58.54%
